Reference: patent publication US5130483A, “Isoprenoid derivatives and pharmaceutical preparations containing the same” (Terumo Kabushiki Kaisha, priority 1987, dated 1992)

Experiments:
5-lipoxygenase [1] = molecular target: T1, 5-lipoxygenase (Rattus norvegicus, UniProt P12527); experiment: 5-Lipoxygenase-inhibiting activity (Test Example 1, HPLC of 5-HETE); assay type: biochemical; conditions: RBL-1 cell supernatant; 50 μg arachidonic acid; pH 7.4; 37° C., 15 min; HPLC peak of 5-HETE; read-out: 50% Inhibitory concentration
T1 construct: The supernatant is employed as an enzyme solution of a 5-lipoxygenase; endogenous in cells; host or cells: RBL-1 rat basophilic leukemia cells, sonicated, 15,000 rpm supernatant (crude, not purified)
T1 sequence (P12527 1-673): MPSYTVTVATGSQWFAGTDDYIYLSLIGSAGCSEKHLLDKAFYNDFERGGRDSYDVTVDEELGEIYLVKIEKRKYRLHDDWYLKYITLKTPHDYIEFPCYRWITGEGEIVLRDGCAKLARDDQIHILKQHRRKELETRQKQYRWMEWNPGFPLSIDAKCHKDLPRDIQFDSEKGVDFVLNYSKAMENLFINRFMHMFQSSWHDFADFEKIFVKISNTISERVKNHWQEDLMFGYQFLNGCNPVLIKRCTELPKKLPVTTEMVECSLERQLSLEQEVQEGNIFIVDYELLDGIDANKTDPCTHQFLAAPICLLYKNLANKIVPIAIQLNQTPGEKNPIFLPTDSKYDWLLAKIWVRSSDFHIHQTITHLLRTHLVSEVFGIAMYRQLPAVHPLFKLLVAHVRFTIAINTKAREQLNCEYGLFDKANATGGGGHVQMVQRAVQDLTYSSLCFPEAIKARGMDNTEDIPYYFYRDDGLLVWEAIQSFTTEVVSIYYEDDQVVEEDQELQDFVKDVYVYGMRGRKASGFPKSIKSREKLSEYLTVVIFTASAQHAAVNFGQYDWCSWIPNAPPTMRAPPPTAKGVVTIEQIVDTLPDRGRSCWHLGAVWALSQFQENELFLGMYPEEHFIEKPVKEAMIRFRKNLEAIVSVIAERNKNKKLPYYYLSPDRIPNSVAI
Procedure: A suspension of rat-origin basophilic leukemia cell strain RBL-1 in an Eagle basal medium (manufactured by Gibco Laboratories) containing 10% FCS is cultivated in an 5% CO2 incubator at 37° C. The culture is then centrifuged at 4° C. to collect cells. The cells are re-suspended in a phosphate buffer solution at pH 7.4 to a cell density of 1.0-3.0×10^7 cells/ml. The suspended cells are treated by an ultrasonic cell blender and then centrifuged at 15,000 rpm at 4° C. for 30 min. The supernatant is employed as an enzyme solution of a 5-lipoxygenase. In test tubes are placed 50 μg of arachdonic acid and an isoprenoid derivative of the invention to be tested. To each of the test tubes are added 0.30 ml of phosphate buffer, 0.20 ml of the enzyme solution as prepared above and 5 μl of a 100 mM CaCl2 (calcium chloride) solution. The mixture is allowed to react at 37° C. for 15 min. To the reaction mixture, after ice-cooling, is added one drop of 1N HCl (hydrochloric acid), and the resulting mass is extracted with 2 ml of ethyl acetate. The extract is concentrated to dryness followed by addition of 100 μl of methanol for use as a test specimen.
Said specimen is injected into octadecylsilane (ODS) reverse phase high performance liquid chromatography (HPLC), eluted with methanol - acetonitrile - water - acetic acid (15 : 45 : 35 : 0.01). Peak for 5-HETE (5-(s)-hydroxy-6,8,11,14-eicosatetraenoic acid), a 5-lipoxygenase product detected in approximately 25 min. is measured. The 5-lipoxygenase-inhibiting activity is determined by decrease in the peak for said 5-lipoxygenase product.
(§1) 50% inhibitory concentration as referred to in Tables 1 and 2 means concentration of an isoprenoid derivative required for controlling the production of […] as described above to 50% by introducing said isoprenoid derivative when production of 5-HETE without isoprenoid derivative of the invention is taken as 100%.

[2] = tested on: stomach lesions (ulcer index) in male Wistar rats; experiment: Anti-ulcer activity (ethanol-hydrochloric acid gastric lesions); assay type: in vivo, rat (male Wistar); conditions: 100 mg/kg, oral, 1 h before ethanol-hydrochloric acid; male Wistar rats fasted 24 h
Procedure: To male Wistar rats (weighing 150-200 g) fasted for 24 hours was administered orally an isoprenoid derivative of the invention. One hour later, ethanol-hydrochloric acid (containing 150 mM hydrochloric acid in 60% ethanol) was orally given in a volume of 0.5 ml/100 g bodyweight.
One hour later, the animals were sacrificed with ether. The stomach was excised and, after formalin treatment, measured for the length (mm) of lesions developed in glandular portions of the stomach. Total length of the lesions per animal was taken as ulcer index.
Percent inhibition of ulceration as referred to in the table is a value indicating the ulcer index for the rat without an isoprenoid derivative of the invention orally given minus the ulcer index for the orally administered rat divided by the ulcer index for the orally non-administered rat multiplied by 100.

5-lipoxygenase [3] = molecular target: T1, 5-lipoxygenase; experiment: 5-Lipoxygenase-inhibiting activity (Test Example 2, radiolabeled arachidonic acid, TLC of 5-HETE); assay type: biochemical; conditions: RBL-1 cell supernatant, pH 7.4, 37° C., 15 min, radio-TLC of 5-HETE, read-out: 50% Inhibitory concentration
Procedure: A suspension of rat-origin basophilic leukemia cell strain RBL-1 in an Eagle basal medium (manufactured by Gbco Laboratories) containing 10 % FCS is cultivated in a 5% CO2 incubator at 37° C. The culture is then centrifuged at 4° C. to collect cells. The cells are re-suspended in a phosphate buffer solution at pH 7.4 to a cell density of 1.0 -3.0×10^7 cells/ml. The suspended cells are treated by an ultrasonic cell blender and then centrifuged at 15,000 rpm at 4° C. for 30 min. The supernant is employed as an enzyme solution of a 5-lipoxygenase. In test tubes are placed 20 μl of radiolabeled arachidonic acid (10 μl Ci/ml) and an isoprenoid derivative of the invention to be tested. To each of the test tubes are added 0.40 ml of phosphate buffer, 0.10 ml of the enzyme solution as prepared above and […] of a 100 mM CaCl2 (calcium chloride). The mixture is allowed to react at 37° C. for 15 min. To the reaction mixture, after ice-cooling, is added one drop of 1N HCl (hydrochloric acid), and the resulting mass is extracted with 2 ml of ethyl acetate. The extract is concentrated, and the concentrate is spotted and developed on a silica gel thin layer plate (Merck 60F254). Measurement of the inhibitory activity is accomplished by collecting the portion corresponding to 5-HETE (5-(s)-hydroxy-6,8,11,14-eicosatetraenoic acid), a 5-lipoxygenase product detected by a radio-thin layer chromatogram scanner (Dunnschicht-Scanner II LB2723, manufactured by Berthold) and measuring radioactivity by a liquid scintillation counter. The 5-lipoxygenase-inhibiting activity is determined by decrease in the production of said 5-lipoxygenase product.
as §1

| Compound | IC50 (5-lipoxygenase [1]) [nM] | Percent inhibition of ulceration [2] [%] | IC50 (5-lipoxygenase [3]) [nM] |
| --- | --- | --- | --- |
| COc1cc(/C=C/C=C/C(=O)CCC=C(C)C)ccc1O [Example 1, 1-(4'-hydroxy-3'-methoxyphenyl)-9-methyl-1,3,8-decatrien-5-one] | 500 | 79.3 | – |
| COc1cc(/C=C/C=C/C(=O)CC/C=C(\C)CCC=C(C)C)ccc1O [Example 2, 9,13-dimethyl-1-(4'-hydroxy-3'-methoxyphenyl)-1,3,8,12-tetradecatetraen-5-one] | 380 | 94.6 | – |
| COc1cc(/C=C/C=C/C(=O)CC/C=C(\C)CC/C=C(\C)CCC=C(C)C)ccc1O [Example 3, 1-(4'-hydroxy-3'-methoxyphenyl)-9,13,17-trimethyl-1,3,8,12,16-octadecapentaen-5-one] | 800 | 85.0 | – |
| CC(C)=CCCC(=O)/C=C/c1ccc(O)c(O)c1 [Example 4, 1-(3',4'-dihydroxyphenyl)-7-methyl-1,6-octadien-3-one] | 80 | – | – |
| COc1cc(/C=C/C(=O)OCC=C(C)C)ccc1O [Example 5, prenyl 4-hydroxy-3-methoxycinnamate] | – | – | 3000 |
| COc1cc(/C=C/C=C/C(=O)OCC=C(C)C)ccc1O [Example 6, prenyl 5-(3-methoxy-4-hydroxyphenyl)-2,4-pentadienoate] | – | – | 400 |
| CC(C)=CCOC(=O)/C=C/C=C/c1ccc(O)c(O)c1 [Example 7, prenyl 5-(3,4-dihydroxyphenyl)-2,4-pentadienoate] | – | – | 26 |
| COc1cc(/C=C/C=C/C(=O)OC/C=C(\C)CCC=C(C)C)ccc1O [Example 8, geranyl 5-(4-hydroxy-3-methoxyphenyl)-2,4-pentadienoate] | – | – | 1200 |
| CC(C)=CCC/C(C)=C/COC(=O)/C=C/C=C/c1ccc(O)c(O)c1 [Example 9, geranyl 5-(3,4-dihydroxyphenyl)-2,4-pentadienoate] | – | – | 260 |
| COc1cc(/C=C/C=C/C(=O)NCC=C(C)C)ccc1O [Example 11, 5-(4'-hydroxy-3'methoxyphenyl)pentadienoic acid prenylamide] | – | – | 650 |
| COc1cc(/C=C/C=C/C(=O)NC/C=C(\C)CCC=C(C)C)ccc1O [Example 12, 5-(4'-hydroxy-3-methoxyphenyl)pentadienoic acid geranylamide] | – | – | 83 |
| COc1cc(/C=C/C=C/C(=O)NC/C=C(\C)CC/C=C(\C)CCC=C(C)C)ccc1O [Example 13, 5-(4'-hydroxy3'-methoxyphenyl)pentadienoic acid (E,E)-farnesylamide] | – | – | 310 |
| COc1cc(/C=C/C(=O)NC/C=C(\C)CCC=C(C)C)ccc1O [Example 14, 4-hydroxy-3-methoxycinnamic acid geranylamide] | – | – | 920 |
| CC(C)=CCC/C(C)=C/CNC(=O)/C=C/C=C/c1ccc(O)c(O)c1 [Example 15, 5-(3',4'-dihydroxyphenyl)pentadienoic acid geranylamide] | – | – | 11 |
